Bridge positions count the residues as written; N and C are the ends. Peptide text beside a SMILES is read from it.
How the values were obtained:
[1] = Plasma stability, human plasma; settings: for remaining at 24 h, 10 µM / remaining at 2 h, 10 µM / remaining at 6 h, 10 µM / half-life: human; for remaining at 24 h, 10 µM: Li-heparin plasma; for remaining at 2 h, 10 µM / remaining at 6 h, 10 µM: human Li-heparin plasma; for half-life: plasma
Method: (§1) Plasma stability measurements were performed by spiking 5 μl of a 1 mM compound stock solution in DMSO into 495 μl of human or mouse Li-heparin plasma (Innovative Research, Cat. No, IPLALIH5OML (human) and IMS-BC-N (Balb C mouse). The spiked plasma was distributed in 50 μl aliquots into capped PCR tubes for incubation at 37° C. At each time point (0, 2, 6, 24 hours*) 3*aliquots were withdrawn from the incubator. Enzymatic reactions were quenched directly after withdrawal by adding 100 μl of acetonitrile/formic acid=99/1 (v/v). Quenched samples were stored at ambient temperature until the end of the incubation period (24 hrs*). After centrifugation, the supernatant was transferred into fresh vials and analyzed by LC-MS/MS in ESI positive mode (Waters ACQUITY UPLC I-Class System (SM-FTN) with Xevo TQD triple quadrupole mass spectrometer with control software Waters MassLynx). […] Values below the limit of quantification (0.1 μM) and outliers of triplicate results were excluded from further calculations. An exponential regression curve was fitted onto the concentration results. Half-life times were calculated from the slope of the regression curve (t1/2=ln(2)/slope).
(§2) For some samples, as indicated below, the incubation time was 6 hours. The 24 hour data was measured in triplicates whereas the 6 hour data was measured in duplicates.

[2] = system: anti-ALFA VHH; assay: binding affinity to the anti-ALFA VHH (log(agonist) vs. response, variable slope); settings: for LogEC50: best-fit values, log(agonist) vs. response, variable slope; for EC50: binding to anti-ALFA VHH
[3] = biological target: NbALFA; assay: SPR measurements of NbALFA binding (Biacore T200, multi cycle kinetics, 1:1 binding model); settings: for Kd / ka / kd: 25° C., HBS-EP+ buffer, biotinylated NbALFA captured
Method: Affinity measurements were performed using a Biacore T200 (GE Healthcare, Biacore T200 control Software 3.2). […] A freshly docked Biotin CAPture chip was rehydrated overnight in the instrument (standby mode). […] The immobilization of the Nanobody was done for 180 s at 10 μL/min on FC2 followed by quenching of unbound streptavidin by 0.1 mM biocytin for 60 s and 30 μL/min on both flow cells. […] After each cycle, the surface was regenerated for 120 s with 10 μL/min using regeneration solution. All measurements were performed at 25° C. using HBS-EP+ buffer (Cytiva Europe, Cat. no BR100669). The control responses from FC1 were subtracted by the sample measurement in FC2 (FC2−FC1) followed by subtraction of the 0 nM blank injection. Resulting binding curves of this multi cycle kinetic experiment were fitted using the Biacore T200 Evaluation Software 3.2 and a 1:1 binding model.

[4] = Plasma stability, mouse plasma; settings: for remaining at 2 h, 10 µM / remaining at 6 h, 10 µM / remaining at 24 h, 10 µM: Balb C, Li-heparin plasma; for remaining at 2 h, 10 µM / remaining at 6 h, 10 µM / remaining at 24 h, 10 µM / half-life: mouse; for half-life: plasma
Method: as §1, §2

[5] = human plasma, 37° C., timepoint 0 h
[6] = human plasma, 37° C., timepoint 0 h, calibration range 0.1 to 10 μM
[7] = human plasma, 37° C., timepoint 2 h
[8] = human plasma, 37° C., timepoint 6 h
[9] = human plasma, 37° C., timepoint 24 h
[10] = Flag (half-life, assay exceeded), human plasma, 37° C.
[11] = Half-life time, human plasma, 37° C., incubation 24 h (triplicates) or 6 h (duplicates)
[12] = mouse plasma, 37° C., timepoint 0 h
[13] = mouse plasma, 37° C., timepoint 0 h, calibration range 0.1 to 10 μM
[14] = mouse plasma, 37° C., timepoint 2 h
[15] = mouse plasma, 37° C., timepoint 6 h
[16] = mouse plasma, 37° C., timepoint 24 h
[17] = Half-life time, mouse plasma, 37° C., incubation 24 h (triplicates) or 6 h (duplicates)

## CC(=O)N[C@@H](CO)C(=O)N[C@@H](CCCNC(=N)N)C(=O)N[C@@H](CC(C)C)C(=O)N[C@@H](CCC(=O)O)C(=O)N[C@@H](CCC(=O)O)C(=O)N[C@@H](CCC(=O)O)C(=O)N[C@@H](CC(C)C)C(=O)N[C@@H](CCCNC(=N)N)C(=O)N[C@H]1CCCCNC(=O)CC[C@@H](C(N)=O)NC(=O)[C@H]([C@@H](C)O)NC(=O)[C@H](CC(C)C)NC(=O)[C@H](CCCNC(=N)N)NC1=O [SD15193, Ac-Ser-Arg-Leu-Glu-Glu-Glu-Leu-Arg-(cyclo9)Lys-Arg-Leu-Thr-(cyclo13)Glu-NH2] (Ac-SRLEEELRKRLTE-NH2; lactam 9-13)
[1]; [5]
  Conc. (% of T0): 100.0 % of T0
  Mean (compound concentration): 2.81
  Tube 2 (compound concentration): 2.845
  Tube 3 (compound concentration): 2.795
[1]; [6]
  Tube 1 (compound concentration): 2.799
[1]; [7]
  Mean (compound concentration): 2.71
  Tube 1 (compound concentration): 2.769
  Tube 2 (compound concentration): 2.647
  Tube 3 (compound concentration): 2.717
[1]; [8]
  Mean (compound concentration): 2.66
  Tube 1 (compound concentration): 2.774
  Tube 2 (compound concentration): 2.678
  Tube 3 (compound concentration): 2.527
[1]; [9]
  Mean (compound concentration): 2.09
  Tube 1 (compound concentration): 2.387
  Tube 2 (compound concentration): 1.983
  Tube 3 (compound concentration): 1.888
[1]
  remaining at 24 h, 10 µM: 74.2%
  remaining at 2 h, 10 µM: 96.4%
  remaining at 6 h, 10 µM: 94.5%
[1]; [10]
  half-life: > 24 h
[1]; [11]
  half-life: 56.1 h
[2]
  LogEC50: 0.7818
  EC50: 6.05 nM
[3]
  Kd: 0.0556 nM
  ka: 1.95e+07 M⁻¹ s⁻¹
  kd: 0.00109 s⁻¹
[4]
  remaining at 2 h, 10 µM: 87.5%
  remaining at 6 h, 10 µM: 72.7%
  remaining at 24 h, 10 µM: 39.4%
[4]; [12]
  Conc. (% of T0): 100.0 % of T0
  Mean (compound concentration): 3.29
  Tube 2 (compound concentration): 3.236
  Tube 3 (compound concentration): 3.311
[4]; [13]
  Tube 1 (compound concentration): 3.315
[4]; [14]
  Mean (compound concentration): 2.88
  Tube 1 (compound concentration): 2.864
  Tube 2 (compound concentration): 2.972
  Tube 3 (compound concentration): 2.789
[4]; [15]
  Mean (compound concentration): 2.39
  Tube 1 (compound concentration): 2.383
  Tube 2 (compound concentration): 2.443
  Tube 3 (compound concentration): 2.346
[4]; [16]
  Mean (compound concentration): 1.30
  Tube 1 (compound concentration): 1.253
  Tube 2 (compound concentration): 1.397
  Tube 3 (compound concentration): 1.236
[4]; [17]
  half-life: 18.5 h

## CC(=O)N[C@@H](CO)C(=O)N[C@@H](CCCNC(=N)N)C(=O)N[C@@H](CC(C)C)C(=O)N[C@@H](CCC(=O)O)C(=O)N[C@H]1CCC(=O)NCCCC[C@@H](C(=O)N[C@@H](CCCNC(=N)N)C(=O)N[C@@H](CC(C)C)C(=O)N[C@H](C(=O)N[C@@H](CCC(=O)O)C(N)=O)[C@@H](C)O)NC(=O)[C@H](CCCNC(=N)N)NC(=O)[C@H](CC(C)C)NC(=O)[C@H](CCC(=O)O)NC1=O [SD15194, Ac-Ser-Arg-Leu-Glu-(cyclo5)Glu-Glu-Leu-Arg-(cyclo9)Lys-Arg-Leu-Thr-Glu-NH2] (Ac-SRLEEELRKRLTE-NH2; lactam 5-9)
[1]; human plasma, 37° C., incubation 24 h (triplicates) or 6 h (duplicates), listed as SD 00015194
  Half-life time: 33.48 h
[1]; [5]
  Conc. (% of T0): 100.0 % of T0
  Mean (compound concentration): 2.26
  Tube 2 (compound concentration): 2.271
  Tube 3 (compound concentration): 2.302
[1]; [6]
  Tube 1 (compound concentration): 2.215
[1]; [7]
  Mean (compound concentration): 2.09
  Tube 1 (compound concentration): 2.086
  Tube 2 (compound concentration): 2.052
  Tube 3 (compound concentration): 2.117
[1]; [8]
  Mean (compound concentration): 1.99
  Tube 1 (compound concentration): 1.884
  Tube 2 (compound concentration): 2.057
  Tube 3 (compound concentration): 2.041
[1]; [9]
  Mean (compound concentration): 1.36
  Tube 1 (compound concentration): 1.322
  Tube 2 (compound concentration): 1.377
  Tube 3 (compound concentration): 1.368
[1]
  remaining at 24 h, 10 µM: 59.9%
  remaining at 2 h, 10 µM: 92.1%
  remaining at 6 h, 10 µM: 88.1%
[1]; [10]
  half-life: > 24 h
[1]; [11]
  half-life: > 24 h
[2]
  LogEC50: 0.7763
  EC50: 5.97 nM
[2]; listed as Ac_5E-9Cyclo_ALFA
  EC50: 6 nM
[3]
  Kd: 0.0376 nM
  ka: 1.78e+07 M⁻¹ s⁻¹
  kd: 0.00067 s⁻¹
[3]; in words
  binding with respect to NbALFA: very good binding
[4]
  remaining at 2 h, 10 µM: 95.5%
  remaining at 6 h, 10 µM: 85.4%
  remaining at 24 h, 10 µM: 62.3%
[4]; mouse plasma, 37° C., incubation 24 h (triplicates) or 6 h (duplicates), listed as SD 00015194
  Half-life time: 35.69 h
[4]; [12]
  Conc. (% of T0): 100.0 % of T0
  Mean (compound concentration): 2.57
  Tube 2 (compound concentration): 2.488
  Tube 3 (compound concentration): 2.617
[4]; [13]
  Tube 1 (compound concentration): 2.606
[4]; [14]
  Mean (compound concentration): 2.46
  Tube 1 (compound concentration): 2.526
  Tube 2 (compound concentration): 2.467
  Tube 3 (compound concentration): 2.373
[4]; [15]
  Mean (compound concentration): 2.20
  Tube 1 (compound concentration): 2.178
  Tube 2 (compound concentration): 2.256
  Tube 3 (compound concentration): 2.154
[4]; [16]
  Mean (compound concentration): 1.60
  Tube 1 (compound concentration): 1.543
  Tube 2 (compound concentration): 1.638
  Tube 3 (compound concentration): 1.62
[4]; Flag (half-life, assay exceeded), mouse plasma, 37° C.
  half-life: > 24 h
[4]; [17]
  half-life: > 24 h

From US20250154202A1, “CYCLIC EPITOPE TAGS” (BIONTECH SE, priority 2022, published 2025)
